These results are taken from US7462615B2, “Inhibitors of cysteine proteases, the pharmaceutical compositions thereof and their therapeutic applications” (Hybrigenics SA, priority 2005, dated 2008).

Like-named read-outs stand apart in the source and are kept apart here.

In general, GI50 refers to the concentration giving 50% growth inhibition.

The test system of assay [1] is HCT116 colon cancer cells. The experiment in a line: HCT116 Cell Viability and Proliferation Assay. Particulars: MTS, mean of three independent experiments, read-out: HCT116 GI50 D3. It counts as cell-based. As for the experimental part:
HCT116 colon cancer cells were obtained from ATCC (American Type Culture Collection), and maintained in Mc Coy's 5A medium containing 10% FBS, 3 mM glutamine and 1% penicillin/streptomycin. Cells were incubated at 37° C. in a humidified atmosphere containing 5% CO2.
Cell viability was assayed using the MTS technique in 96-well culture plates (CellTiter 96® Aqueous Non-Radioactive Cell Proliferation Assay, Promega) according to the manufacturer's instructions. MTS (3-(4,5-dimethylthiazol-2-yl)-5(3-carboxymethoxyphenyl)-2-(4-sulfophenyl)-2H-tetra-zolium) is a MTT-derived tetrazolium that is reduced in metabolically active cells into a soluble, cell-permeant formazan. The amount of formazan, detected by its absorbance at 492 nm is proportional to the number of living, metabolically active cells.
10^3 HCT116 cells were seeded per well. 24 hours later, the medium was changed and the cells treated in triplicate with the following concentrations of each compound: 10 μM-3.33 μM-1.11 μM-370 nM-123 nM-41 nM-14 nM and 5 nM. The compounds were diluted in 100% DMSO, whose final concentration on cells was kept at 0.5%.
(§1) Cells were incubated with the compounds for 72 hours, and their viability then assayed by the addition of MTS for 2 hours. Absorbance at 492 nm was measured directly from the 96-well culture plates. GI50 (Growth Inhibition 50) concentrations for each compound were calculated using a sigmoidal variable slope fit (Prism 4.0, Graphpad Softwares). Values represent mean of three independent experiments.

In assay [2] the test system is PC-3 prostate cancer cells. Nature of the assay: PC3 Cell Viability and Proliferation Assay. Format: cell-based. The settings on record: MTS, mean of three independent experiments, read-out: PC3 GI50 D3. As for the experimental part:
PC-3 prostate cancer cells were obtained from ATCC, and maintained in F-12K medium containing 7% FBS and 1% penicillin/streptomycin. Cells were incubated at 37° C. in a humidified atmosphere containing 5% CO2.
Cell viability was assayed using the MTS technique in 96-well culture plates (CellTiter 96® Aqueous Non-Radioactive Cell Proliferation Assay, Promega) according to the manufacturer's instructions. MTS (3-(4,5-dimethyl-thiazol-2-yl)-5-(3-carboxymethoxyphenyl)-2-(4-sulfophenyl)-2H-tetrazolium) is a MTT-derived tetrazolium that is reduced in metabolically active cells into a soluble, cell-permeant formazan. The amount of formazan, detected by its absorbance at 492 nm is proportional to the number of living, metabolically active cells.
2×10^3 PC3 cells were seeded per well. 24 hours later, the medium was changed and the cells treated in triplicate with the following concentrations of each compound: 10 μM-3.33 μM-1.11 μM-370 nM-123 nM-41 nM-14 nM and 5 nM. The compounds were diluted in 100% DMSO, whose final concentration on cells was kept at 0.5%.
as §1

For the next assay, the target named is Cathepsin B (Homo sapiens, UniProt P07858). The experiment in a line: Cathepsin B Activity Assay. Format: biochemical. The settings on record: 36 μM z-RR-AMC; 3.6 nM enzyme; pre-incubated 30 minutes at 25° C., 60 minutes at 37° C.; sigmoidal fit; read-out: Cathepsin B (Inhibition of cysteine protease activities). As to the method: Cathepsin B was diluted in Cathepsin B buffer (20 mM Tris HCl pH 6.8; 1 mM EDTA; 1 mM DTT). Compounds stocks (100 mM) were stored at −20° C. in DMSO. Compounds were tested at the following final concentrations: 100 μM; 33.3 μM; 11.1 μM; 3.7 μM; 1.23 μM; 412 nM; 137 nM; 45.7 nM; 15.2 nM; 5 nM. Reactions were performed as duplicates in Black LJL 96 well plates (HE microplates; Molecular Devices; 20 μl final reaction volume). The substrate concentration for cathepsin B specificity assay was 36 μM (z-RR-AMC; Calbiochem). The concentration of the enzyme (Cathepsin B) in specificity assays was 3.6 nM. The concentrations were determined in order to perform specificity assays under initial velocities at fixed substrate concentration. Compounds were pre-incubated with enzymes for 30 minutes at 25° C. Reactions were initiated by addition of substrate to the plates containing the enzymes (+/− compounds) diluted in assay buffer. Reactions were incubated for 60 minutes at 37° C. Reactions were stopped by adding acetic acid (100 mM final). Readings were performed on a Pherastar Fluorescent Reader (BMG). δ […]. Data (mean values +/− standard deviation) were analyzed as % of control (no compound) and plotted as percentage versus the Log of the compound concentration using GraphPad (Prism). Data were fitted to a sigmoidal model (variable slope).

The next assay has as its target T1, Caspase 3 (Homo sapiens, UniProt P42574).
T1 sequence (P42574 29-175 limits assumed): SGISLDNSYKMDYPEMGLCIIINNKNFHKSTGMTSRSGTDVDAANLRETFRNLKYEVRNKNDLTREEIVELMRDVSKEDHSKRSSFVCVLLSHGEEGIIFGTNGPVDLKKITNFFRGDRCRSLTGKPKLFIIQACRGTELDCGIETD
T1 sequence (P42574 176-277 limits assumed): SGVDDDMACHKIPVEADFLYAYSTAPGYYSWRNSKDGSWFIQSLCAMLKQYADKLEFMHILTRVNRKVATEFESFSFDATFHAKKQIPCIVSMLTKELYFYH
The experiment in a line: Caspase 3 Activity Assay. It counts as biochemical. Particulars: 500 nM Ac-DEVD-AMC; 3.2 nM enzyme; pre-incubated 30 minutes at 25° C., 60 minutes at 37° C.; sigmoidal fit; read-out: Caspase 3 (Inhibition of cysteine protease activities). As to the method: Caspase 3 was diluted in Caspase B buffer (100 mM Hepes pH 7.5; 10% sucrose; 0.1% CHAPS). Compounds stocks (100 mM) were stored at −20° C. in DMSO. Compounds were tested at the following final concentrations: 100 μM; 33.3 μM; 11.1 μM; 3.7 μM; 1.23 μM; 412 nM; 137 nM; 45.7 nM; 15.2 nM; 5 nM. Reactions were performed as duplicates in Black LJL 96 well plates (HE microplates; Molecular Devices; 20 μl final reaction volume). The substrate concentration for caspase 3 specificity assay was 500 nM (Ac-DEVD-AMC; Promega). The concentration of the enzyme (Caspase 3) in specificity assays was 3.2 nM. The concentrations were determined in order to perform specificity assays under initial velocities at fixed substrate concentration. Compounds were pre-incubated with enzymes for 30 minutes at 25° C. Reactions were initiated by addition of substrate to the plates containing the enzymes (+/− compounds) diluted in assay buffer. Reactions were incubated for 60 minutes at 37° C. Reactions were stopped by adding acetic acid (100 mM final) Readings were performed on a Pherastar Fluorescent Reader (BMG). δ Emission 380 nm; δ Excitation=460 nm. Data (mean values +/− standard deviation) were analyzed as % of control (no compound) and plotted as percentage versus the Log of the compound concentration using GraphPad (Prism). Data were fitted to a sigmoidal model (variable slope).

[3] abbreviates: Homo sapiens, HCT-116, 72 hours.

`O=C1c2ccccc2-c2nc3nn(Cc4ccccc4)nc3nc21` [Example 4b, 2-Benzyl-2H-1,2,3,4,10-pentaaza-cyclopenta[b]fluoren-9-one]: the 50% growth inhibitory concentration (GI50) in assay [1] (setting [3]) was greater than 10000 nM; in assay [2] (Homo sapiens, PC-3, 72 hours), greater than 10000 nM.

In the case of `Cn1nc2nc3c(nc2n1)-c1ccccc1C3=O` [Example 4a, 2-Methyl-2H-1,2,3,4,10-pentaaza-cyclopenta[b]fluoren-9-one], the IC50 on Cathepsin B was greater than 100000 nM. Moreover, the GI50 is greater than 10000 nM in assay [1] (setting [3]) and greater than 10000 nM in assay [2] (Homo sapiens, PC-3, 72 hours).

As to “6-(7)-Chloro-1-methyl-2,3,4,10,10a-pentaaza-cyclopenta[b]fluoren-9-one [Example 3/A]”, the IC50 on Caspase 3 was determined as 1510 nM; at Cathepsin B, 17400 nM. Also, the concentration for 50% growth inhibition (GI50) in assay [1] (72 hours) came out at 361 nM; in assay [2] (72 hours), 994 nM.

Consider `Nc1nnc2nc3c(nn12)C(=O)c1ccccc1-3` [Example 1c/A, 1-Amino-2,3,4,10,10a-pentaaza-cyclopenta[b]fluoren-9-one], for which the IC50 on Caspase 3 was 3700 nM; on Cathepsin B, 5000 nM. Further, the GI50 in assay [2] (Homo sapiens, PC-3, 72 hours) is greater than 10000 nM.

Turning to `Cc1nnc2nc3c(nn12)-c1ccc(Cl)cc1C3=O` [Example 3/B, 7-Chloro-3-methyl-1,2,3a, 4,10-pentaaza-cyclopenta[b]fluoren-9-one], the values for the IC50 on Caspase 3 and on Cathepsin B were 743 nM and 147 nM, respectively.

For the compound `COCc1nnc2nc3c(nn12)-c1ccccc1C3=O` [Example 1i/B, 3-Methoxymethyl-1,2,3a, 4,10-pentaaza-cyclopenta[b]fluoren-9-one], the IC50 at Caspase 3 was determined as 556 nM; on Cathepsin B, 314 nM.
